Key:
[1] = target: Tyrosine-protein kinase JAK2 (Homo sapiens, UniProt O60674); assay: Inhibition of JAK2 (unknown origin) in presence of ATP at Km concentration by caliper assay
[2] = target: Tyrosine-protein kinase JAK1 (Homo sapiens, UniProt P23458); assay: Inhibition of JAK1 (unknown origin) in presence of ATP at Km concentration by caliper assay
[3] = target: T1, Tyrosine-protein kinase JAK3 (Homo sapiens, UniProt P52333); assay: Inhibition of JAK3 (unknown origin) in presence of ATP at Km concentration by caliper assay
T1 sequence (P52333 whole entry): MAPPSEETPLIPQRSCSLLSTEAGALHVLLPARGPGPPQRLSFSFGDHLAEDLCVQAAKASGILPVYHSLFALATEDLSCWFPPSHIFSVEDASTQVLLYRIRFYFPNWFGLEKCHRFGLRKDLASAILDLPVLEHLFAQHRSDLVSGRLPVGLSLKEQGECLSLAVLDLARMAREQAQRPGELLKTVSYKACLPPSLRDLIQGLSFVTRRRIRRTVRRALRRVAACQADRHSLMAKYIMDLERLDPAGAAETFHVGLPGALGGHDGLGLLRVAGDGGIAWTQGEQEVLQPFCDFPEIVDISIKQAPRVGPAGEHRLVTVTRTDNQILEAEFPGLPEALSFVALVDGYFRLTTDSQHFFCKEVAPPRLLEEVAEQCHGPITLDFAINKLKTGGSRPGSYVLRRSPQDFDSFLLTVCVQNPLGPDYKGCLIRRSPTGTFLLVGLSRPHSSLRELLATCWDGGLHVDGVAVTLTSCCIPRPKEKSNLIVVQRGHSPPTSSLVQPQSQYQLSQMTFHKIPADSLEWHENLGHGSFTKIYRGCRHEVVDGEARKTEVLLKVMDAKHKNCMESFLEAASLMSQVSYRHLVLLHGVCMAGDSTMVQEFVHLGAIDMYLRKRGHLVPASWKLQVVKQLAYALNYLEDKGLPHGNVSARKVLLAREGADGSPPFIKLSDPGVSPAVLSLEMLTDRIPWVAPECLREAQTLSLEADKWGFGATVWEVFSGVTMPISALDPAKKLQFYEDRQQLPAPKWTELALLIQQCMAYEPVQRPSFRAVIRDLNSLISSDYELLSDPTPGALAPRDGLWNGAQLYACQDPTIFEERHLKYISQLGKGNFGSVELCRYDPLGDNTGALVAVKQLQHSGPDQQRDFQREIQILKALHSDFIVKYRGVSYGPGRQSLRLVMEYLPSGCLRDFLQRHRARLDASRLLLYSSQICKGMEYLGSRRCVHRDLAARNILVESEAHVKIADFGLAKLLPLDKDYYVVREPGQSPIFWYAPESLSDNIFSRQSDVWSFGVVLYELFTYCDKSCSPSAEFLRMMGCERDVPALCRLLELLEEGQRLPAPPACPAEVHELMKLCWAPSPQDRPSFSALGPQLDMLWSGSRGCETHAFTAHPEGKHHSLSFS

Tyrosine-protein kinase JAK1, sequence (P23458 whole entry): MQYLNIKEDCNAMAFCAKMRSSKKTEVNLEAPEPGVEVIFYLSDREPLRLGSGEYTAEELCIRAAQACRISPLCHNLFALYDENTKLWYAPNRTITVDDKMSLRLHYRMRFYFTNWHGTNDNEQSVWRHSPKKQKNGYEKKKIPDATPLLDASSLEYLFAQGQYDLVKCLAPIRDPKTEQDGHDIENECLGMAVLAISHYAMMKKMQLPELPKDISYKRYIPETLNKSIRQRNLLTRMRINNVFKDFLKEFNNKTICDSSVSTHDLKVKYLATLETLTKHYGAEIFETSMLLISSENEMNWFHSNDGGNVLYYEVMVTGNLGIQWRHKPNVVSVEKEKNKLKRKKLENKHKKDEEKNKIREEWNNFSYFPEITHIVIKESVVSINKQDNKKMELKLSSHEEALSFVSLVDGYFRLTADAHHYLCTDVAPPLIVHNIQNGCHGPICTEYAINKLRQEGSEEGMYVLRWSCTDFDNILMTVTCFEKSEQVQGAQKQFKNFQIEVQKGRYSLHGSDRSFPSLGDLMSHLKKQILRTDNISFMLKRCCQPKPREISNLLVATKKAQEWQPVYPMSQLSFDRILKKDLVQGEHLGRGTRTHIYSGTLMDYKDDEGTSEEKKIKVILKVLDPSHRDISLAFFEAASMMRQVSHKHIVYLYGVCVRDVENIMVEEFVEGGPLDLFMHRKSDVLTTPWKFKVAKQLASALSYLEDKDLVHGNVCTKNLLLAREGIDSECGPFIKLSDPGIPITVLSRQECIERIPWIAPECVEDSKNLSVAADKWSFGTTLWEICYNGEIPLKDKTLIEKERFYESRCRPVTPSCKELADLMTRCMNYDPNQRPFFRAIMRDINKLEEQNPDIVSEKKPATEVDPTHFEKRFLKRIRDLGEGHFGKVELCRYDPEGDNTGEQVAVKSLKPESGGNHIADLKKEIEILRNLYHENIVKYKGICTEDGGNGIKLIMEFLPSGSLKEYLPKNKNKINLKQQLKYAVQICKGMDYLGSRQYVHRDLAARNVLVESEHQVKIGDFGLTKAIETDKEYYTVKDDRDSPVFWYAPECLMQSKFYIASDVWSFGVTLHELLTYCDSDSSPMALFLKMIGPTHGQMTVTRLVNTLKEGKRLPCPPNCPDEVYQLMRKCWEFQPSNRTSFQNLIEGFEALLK
Tyrosine-protein kinase JAK2, sequence (O60674 whole entry): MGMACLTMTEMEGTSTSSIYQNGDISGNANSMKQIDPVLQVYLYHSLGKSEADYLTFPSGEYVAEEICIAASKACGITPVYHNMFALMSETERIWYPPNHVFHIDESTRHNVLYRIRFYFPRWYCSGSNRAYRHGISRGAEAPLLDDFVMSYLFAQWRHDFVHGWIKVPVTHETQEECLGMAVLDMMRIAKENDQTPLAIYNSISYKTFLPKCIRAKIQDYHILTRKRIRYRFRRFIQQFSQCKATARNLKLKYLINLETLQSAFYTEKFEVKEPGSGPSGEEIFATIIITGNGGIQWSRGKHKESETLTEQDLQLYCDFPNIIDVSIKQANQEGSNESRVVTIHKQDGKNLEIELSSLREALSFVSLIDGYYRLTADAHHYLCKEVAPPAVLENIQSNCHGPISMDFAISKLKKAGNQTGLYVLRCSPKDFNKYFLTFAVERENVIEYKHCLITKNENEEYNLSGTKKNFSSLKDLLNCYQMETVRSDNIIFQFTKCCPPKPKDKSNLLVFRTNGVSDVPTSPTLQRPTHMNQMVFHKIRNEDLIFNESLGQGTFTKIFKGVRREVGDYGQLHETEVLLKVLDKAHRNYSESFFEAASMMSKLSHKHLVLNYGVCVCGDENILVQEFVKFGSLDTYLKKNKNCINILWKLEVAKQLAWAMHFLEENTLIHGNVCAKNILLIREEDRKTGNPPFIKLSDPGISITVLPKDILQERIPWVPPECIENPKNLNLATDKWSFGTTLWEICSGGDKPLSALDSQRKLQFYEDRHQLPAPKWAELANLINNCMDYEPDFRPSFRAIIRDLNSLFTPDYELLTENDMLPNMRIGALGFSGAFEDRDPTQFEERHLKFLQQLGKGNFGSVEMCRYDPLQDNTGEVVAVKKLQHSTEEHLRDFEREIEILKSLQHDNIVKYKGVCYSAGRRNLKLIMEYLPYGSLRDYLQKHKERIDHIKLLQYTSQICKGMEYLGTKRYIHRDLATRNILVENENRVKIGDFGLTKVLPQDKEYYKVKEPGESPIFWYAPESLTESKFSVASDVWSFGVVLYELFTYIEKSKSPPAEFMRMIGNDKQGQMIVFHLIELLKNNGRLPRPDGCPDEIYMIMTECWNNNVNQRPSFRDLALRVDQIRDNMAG

SMILES	IC50 [1] [nM]	IC50 [2] [nM]	IC50 [3] [nM]
O=C(Nc1nc2cccc(C3=CCN(C(=O)C4(C(F)(F)F)CC4)CC3)n2n1)C1CC1	317		
C=CC(=O)N1CC=C(c2cccc3nc(NC(=O)C4CC4)nn23)CC1	424		
O=C(Nc1nc2cccc(-c3ccc(C(=O)N4CC(F)(F)C4)cc3)n2n1)C1CC1	139	124	941
N#CCNC(=O)N1CC=C(c2cccc3nc(NC(=O)C4CC4)nn23)CC1	175		
O=C(Nc1nc2cccc(C3=CCN(C(=O)NCC(F)(F)F)CC3)n2n1)C1CC1	347	234	1740
N#CC1(C(=O)N2CC=C(c3cccc4nc(NC(=O)C5CC5)nn34)CC2)CC1	441		
O=C(Nc1nc2cccc(C3=CCN(C(=O)C4CC4(F)F)CC3)n2n1)C1CC1 (configuration not stated)	192		
N#CCNC(=O)c1ccc(-c2cccc3nc(NC(=O)C4CC4)nn23)cc1	299		
N#CCC(=O)N1CC=C(c2cccc3nc(NC(=O)C4CC4)nn23)CC1	157		
C=C(C#N)C(O)c1ccc(-c2cccc3nc(NC(=O)C4CC4)nn23)cc1 (configuration not stated)	55		
O=C(NCC(F)(F)F)c1ccc(-c2cccc3nc(NC(=O)C4CC4)nn23)cc1	214	230	1020

— ChEMBL document CHEMBL4622902, “Discovery of triazolo [1,5-a] pyridine derivatives as novel JAK1/2 inhibitors” (Bioorg Med Chem Lett, 2020)
